According to PubChem BioAssay (NCI):
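Growth conditions: 96-well plates. Treatment: test compound, 48 hours, 5 concentrations. Analysis: linear interpolation between bracketing concentrations; unreached endpoints set to highest concentration. TGI: concentration producing complete growth inhibition.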

Experiments:
Experiment in all cases: NCI tumour cell line growth inhibition, 48 h
OVCAR-8 ovarian = tested on: OVCAR-8 ovarian
CAKI-1 renal = tested on: CAKI-1 renal
EKVX NSCLC = tested on: EKVX NSCLC
UO-31 renal = tested on: UO-31 renal
RXF-631 renal = tested on: RXF-631 renal
SNB-75 CNS = tested on: SNB-75 CNS
LXFL 529 NSCLC = tested on: LXFL 529 NSCLC
HT29 colon = tested on: HT29 colon
COLO 205 colon = tested on: COLO 205 colon
A549 NSCLC = tested on: A549 NSCLC
SK-OV-3 ovarian = tested on: SK-OV-3 ovarian
HCT-15 colon = tested on: HCT-15 colon
DLD-1 colon = tested on: DLD-1 colon
KM12 colon = tested on: KM12 colon
HCC-2998 colon = tested on: HCC-2998 colon
SF-268 CNS = tested on: SF-268 CNS
ACHN renal = tested on: ACHN renal
DMS 273 small cell lung = tested on: DMS 273 small cell lung
OVCAR-3 ovarian = tested on: OVCAR-3 ovarian
U251 CNS = tested on: U251 CNS
SNB-19 CNS = tested on: SNB-19 CNS
OVCAR-5 ovarian = tested on: OVCAR-5 ovarian
HOP-18 NSCLC = tested on: HOP-18 NSCLC
TK-10 renal = tested on: TK-10 renal
SF-295 CNS = tested on: SF-295 CNS
HL-60(TB) leukemia = tested on: HL-60(TB) leukemia
HCT-116 colon = tested on: HCT-116 colon
UACC-62 melanoma = tested on: UACC-62 melanoma
NCI-H226 lung = tested on: NCI-H226 lung
NCI-H23 lung = tested on: NCI-H23 lung
HOP-92 NSCLC = tested on: HOP-92 NSCLC
NCI-H522 lung = tested on: NCI-H522 lung
KM20L2 colon = tested on: KM20L2 colon
SW-620 colon = tested on: SW-620 colon
NCI-H460 lung = tested on: NCI-H460 lung
SR leukemia = tested on: SR leukemia
LOX IMVI melanoma = tested on: LOX IMVI melanoma
SN12C renal = tested on: SN12C renal
SK-MEL-28 melanoma = tested on: SK-MEL-28 melanoma
IGROV1 ovarian = tested on: IGROV1 ovarian
A498 renal = tested on: A498 renal
OVCAR-4 ovarian = tested on: OVCAR-4 ovarian
786-0 renal = tested on: 786-0 renal
SF-539 CNS = tested on: SF-539 CNS
K-562 leukemia = tested on: K-562 leukemia
M14 melanoma = tested on: M14 melanoma
UACC-257 melanoma = tested on: UACC-257 melanoma
SK-MEL-5 melanoma = tested on: SK-MEL-5 melanoma
MOLT-4 leukemia = tested on: MOLT-4 leukemia
SNB-78 CNS = tested on: SNB-78 CNS
M19-MEL melanoma = tested on: M19-MEL melanoma
MALME-3M melanoma = tested on: MALME-3M melanoma
SK-MEL-2 melanoma = tested on: SK-MEL-2 melanoma
CCRF-CEM leukemia = tested on: CCRF-CEM leukemia
DMS 114 small cell lung = tested on: DMS 114 small cell lung
XF 498 CNS = tested on: XF 498 CNS
HOP-62 NSCLC = tested on: HOP-62 NSCLC
RXF 393 renal = tested on: RXF 393 renal
RPMI-8226 leukemia = tested on: RPMI-8226 leukemia

`CCC(=O)C1=C(OC(C)=O)C2Cc3c(n(C)c4ccccc34)C(C1)N2C` (configuration not stated) gave a TGI (OVCAR-8 ovarian) of 41.6 µM, a TGI (CAKI-1 renal) of over 100 µM and a TGI (EKVX NSCLC) of over 100 µM. It also gave a TGI (UO-31 renal) of over 100 µM, a TGI (RXF-631 renal) of 67.2 µM and a TGI (SNB-75 CNS) of over 100 µM. For the same compound, the TGI (LXFL 529 NSCLC) was over 100 µM, the TGI (HT29 colon) was over 100 µM and the TGI (COLO 205 colon) was over 100 µM. For the same compound, the TGI (A549 NSCLC) was over 100 µM, the TGI (SK-OV-3 ovarian) was over 100 µM and the TGI (HCT-15 colon) was 38 µM. It also gave a TGI (DLD-1 colon) of 74.5 µM, a TGI (KM12 colon) of over 100 µM and a TGI (HCC-2998 colon) of over 100 µM. For the same compound, the TGI (SF-268 CNS) was 47.9 µM, the TGI (ACHN renal) was over 100 µM and the TGI (DMS 273 small cell lung) was 41.7 µM. For the same compound, the TGI (OVCAR-3 ovarian) was over 100 µM, the TGI (U251 CNS) was over 100 µM and the TGI (SNB-19 CNS) was over 100 µM. It also gave a TGI (OVCAR-5 ovarian) of over 100 µM, a TGI (HOP-18 NSCLC) of over 100 µM and a TGI (TK-10 renal) of over 100 µM. The TGI (SF-295 CNS) was over 100 µM, the TGI (HL-60(TB) leukemia) was 53 µM and the TGI (HCT-116 colon) was 85.1 µM. The TGI (UACC-62 melanoma) was over 100 µM, the TGI (NCI-H226 lung) was over 100 µM and the TGI (NCI-H23 lung) was over 100 µM. It also gave a TGI (HOP-92 NSCLC) of over 100 µM, a TGI (NCI-H522 lung) of 30 µM and a TGI (KM20L2 colon) of over 100 µM. For the same compound, the TGI (SW-620 colon) was 90.1 µM, the TGI (NCI-H460 lung) was over 100 µM and the TGI (SR leukemia) was over 100 µM. The TGI (LOX IMVI melanoma) was over 100 µM, the TGI (SN12C renal) was 61.5 µM and the TGI (SK-MEL-28 melanoma) was over 100 µM. It also gave a TGI (IGROV1 ovarian) of over 100 µM, a TGI (A498 renal) of over 100 µM and a TGI (OVCAR-4 ovarian) of over 100 µM. It also gave a TGI (786-0 renal) of 66.4 µM, a TGI (SF-539 CNS) of 59.2 µM and a TGI (K-562 leukemia) of over 100 µM. It also gave a TGI (M14 melanoma) of over 100 µM, a TGI (UACC-257 melanoma) of over 100 µM and a TGI (SK-MEL-5 melanoma) of 97.9 µM. The TGI (MOLT-4 leukemia) was over 100 µM, the TGI (SNB-78 CNS) was 56.4 µM and the TGI (M19-MEL melanoma) was over 100 µM. For the same compound, the TGI (MALME-3M melanoma) was over 100 µM, the TGI (SK-MEL-2 melanoma) was over 100 µM and the TGI (CCRF-CEM leukemia) was 80.9 µM. For the same compound, the TGI (DMS 114 small cell lung) was 58.7 µM.
Work on `Nc1nnc2nc(CC(=O)/C=C/c3ccccc3)c(=O)[nH]n12` yielded a TGI (OVCAR-8 ovarian) of over 100 µM, a TGI (CAKI-1 renal) of over 100 µM and a TGI (EKVX NSCLC) of over 100 µM. The TGI (UO-31 renal) was over 100 µM, the TGI (RXF-631 renal) was over 100 µM and the TGI (XF 498 CNS) was over 100 µM. For the same compound, the TGI (SNB-75 CNS) was over 100 µM, the TGI (LXFL 529 NSCLC) was over 100 µM and the TGI (HT29 colon) was over 100 µM. The TGI (COLO 205 colon) was over 100 µM, the TGI (A549 NSCLC) was over 100 µM and the TGI (SK-OV-3 ovarian) was over 100 µM. It also gave a TGI (HCT-15 colon) of over 100 µM, a TGI (DLD-1 colon) of over 100 µM and a TGI (KM12 colon) of over 100 µM. It also gave a TGI (HCC-2998 colon) of over 100 µM, a TGI (SF-268 CNS) of over 100 µM and a TGI (ACHN renal) of over 100 µM. For the same compound, the TGI (DMS 273 small cell lung) was over 100 µM, the TGI (OVCAR-3 ovarian) was over 100 µM and the TGI (U251 CNS) was over 100 µM. For the same compound, the TGI (SNB-19 CNS) was over 100 µM, the TGI (OVCAR-5 ovarian) was over 100 µM and the TGI (TK-10 renal) was over 100 µM. For the same compound, the TGI (SF-295 CNS) was over 100 µM, the TGI (HL-60(TB) leukemia) was over 100 µM and the TGI (HCT-116 colon) was over 100 µM. The TGI (HOP-62 NSCLC) was over 100 µM, the TGI (UACC-62 melanoma) was over 100 µM and the TGI (NCI-H226 lung) was over 100 µM. For the same compound, the TGI (NCI-H23 lung) was over 100 µM, the TGI (HOP-92 NSCLC) was over 100 µM and the TGI (NCI-H522 lung) was over 100 µM. For the same compound, the TGI (KM20L2 colon) was over 100 µM, the TGI (SW-620 colon) was over 100 µM and the TGI (RXF 393 renal) was over 100 µM. It also gave a TGI (NCI-H460 lung) of over 100 µM, a TGI (LOX IMVI melanoma) of over 100 µM and a TGI (SN12C renal) of over 100 µM. For the same compound, the TGI (SK-MEL-28 melanoma) was over 100 µM, the TGI (IGROV1 ovarian) was over 100 µM and the TGI (A498 renal) was over 100 µM. It also gave a TGI (OVCAR-4 ovarian) of over 100 µM, a TGI (786-0 renal) of over 100 µM and a TGI (SF-539 CNS) of over 100 µM. It also gave a TGI (K-562 leukemia) of over 100 µM, a TGI (M14 melanoma) of over 100 µM and a TGI (UACC-257 melanoma) of over 100 µM. The TGI (SK-MEL-5 melanoma) was over 100 µM, the TGI (MOLT-4 leukemia) was over 100 µM and the TGI (SNB-78 CNS) was over 100 µM. It also gave a TGI (M19-MEL melanoma) of over 100 µM, a TGI (RPMI-8226 leukemia) of over 100 µM and a TGI (MALME-3M melanoma) of over 100 µM. The TGI (SK-MEL-2 melanoma) was over 100 µM, the TGI (CCRF-CEM leukemia) was over 100 µM and the TGI (DMS 114 small cell lung) was over 100 µM.
